Source: US20220192955A1, “AZOXYSTROBIN EFFICACY IN SCALP HEALTH” (The Procter & Gamble Company, priority 2020, published 2022)
Marks after values point to notes of the source that are not given here.

What was measured:
[1] = tested on: Myeloperoxidase; assay: Scalp tape strip myeloperoxidase protein; type: in vivo, human
Method: (§1) Subjects are enrolled in a double-blind, randomized study for all test groups and have Baseline and Week 3 measurements of scalp health taken for flaking, itch and scalp health endpoints. Subjects take home a test product(s) and are instructed on use of test products throughout the study. Test products are solubilized in a hydroalcoholic leave-on formulation. Azoxystrobin raw material is sourced from AK Scientific Inc. (Union City, Calif.) as >97% pure. Azoxystrobin scalp treatment is prepared from a slurry of azoxystrobin in ethanol that is formulated to 0.1% (w/v) in a base chassis of 50% ethanol, 0.35% Ultrez 21 (rheology modifier), 0.05% neutrol TE and water (q.s.). […] Biomarkers of scalp health, including biomarkers of inflammation, itch, oxidative stress and barrier integrity are assessed by non-invasive tape strip sampling of the scalp surface to determine therapeutic resolution. All biomarkers are analyzed from D-Squame® scalp tape samples that are collected from the scalp of subjects before and after scalp treatment with either azoxystrobin or vehicle (Baseline, and Week 3 respectively). These are extracted and analyzed according to published methods (International Journal of Dermatology 2011, 50, 102-113, incorporated by reference herein). […] Myeloperoxidase protein is analyzed to determine the impact of scalp treatment oxidative stress and potential oxidative damage. […]

[2] = tested on: Malassezia furfur (CBS 7982); assay: In vitro evaluation of antifungal potency (MIC); type: cell-based
Method: Malassezia furfur (CBS 7982) is grown for approximately 24 hours in a 250 ml vent cap polycarbonate Erlenmeyer flask containing approximately 100 ml of mDixon medium and 5 ml of a fully grown M. furfur culture prepared using the same conditions as described. The cells are diluted by mixing 2.5 ml of the 24 hour-old culture per 50 ml of mDixon medium. A Versette robot (ThermoFisher Scientific) is used to transfer 292.5 μl of the dilute cells into each well of a Beckman 267007 polypropylene round bottom deep well plate. All compounds are sourced from Sigma Aldrich (St. Louis, Mo.) and prepared as 10 mg/ml in DMSO. A semipermeable aeraseal membrane is applied to the plate which is then be covered with water-soaked cotton batting. The samples are be shaken at 31° C. on a Heidolph Titramax 100 shaker at 1500 rpm for approximately 72 hours. The plates are shaken at 1250 rpm on an Eppendorf MixMate shaker to disperse the cells before transferring 200 μl to a Corning 3596 polystyrene plate. The samples are shaken again at 950 rpm on a MixMate shaker before the absorbance at 600 nm is read using a Molecular Devices SpectraMax plate reader.

[3] = tested on: S100A12; assay: Scalp tape strip S100A12 protein; type: in vivo, human
Method: as §1, with “S100A12” for “Myeloperoxidase”, “on active inflammatory disease.” for “oxidative stress and potential oxidative damage.”

[4] = 0.1% leave-on daily, Week 3, scalp tape strips

For `CO/C=C(/C(=O)OC)c1ccccc1Oc1cc(Oc2ccccc2C#N)ncn1` [Azoxystrobin], the “Myeloperoxidase Results % Change from Baseline” value [1, 4] was 63.7* %, the reduction in myeloperoxidase ([1]; compared to a placebo control) was 64% and the “MIC value, Malassezia furfur” value ([2]; M. furfur CBS 7982, mDixon medium, 31° C., approximately 72 hours, absorbance at 600 nm) was 0.39-0.49 ppm. For the same compound, the “times more potent than pyraclostrobin (MIC)” value ([2]; Malassezia furfur MIC ratio) was 4 times, the “times more potent than zinc pyrithione (MIC)” value ([2]; Malassezia furfur MIC ratio) was 8 times and the “S100A12 Results % Change from Baseline” value [3, 4] was −71.2* %. For the same compound, the “reduction of S100A12 levels” value ([3]; compared to a placebo control) was 71%.
